One series deals with NR2B site (Homo sapiens, UniProt Q05586+Q13224). Briefly: binding to the NR2B site (Ki, automatic and manual). As to conditions: for affinity for NR2B: stated in words. The protocol: (§1) All derivatives were evaluated for binding to the NR2B site and other neuro-targets. Table 1 provides the structures of the derivatives, molecular weight, calculated Log D values, the structure-activity relationship, and binding data.

The target of the next series is σ2 receptor (Homo sapiens, UniProt Q5BJF2). In words: σ2 receptor binding at 10 μM. The protocol:
as §1

A further series deals with σ1 receptor (Homo sapiens, UniProt Q99720). Briefly: σ1 receptor binding at 10 μM. The protocol: as §1
σ1 receptor, sequence (Q99720 whole entry): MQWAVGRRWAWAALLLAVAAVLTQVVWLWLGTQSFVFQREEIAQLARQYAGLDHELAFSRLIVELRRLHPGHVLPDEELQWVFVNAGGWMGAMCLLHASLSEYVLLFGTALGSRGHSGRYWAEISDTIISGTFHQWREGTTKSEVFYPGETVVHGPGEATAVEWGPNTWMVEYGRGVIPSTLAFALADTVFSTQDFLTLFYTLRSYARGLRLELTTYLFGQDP
The target of series [1] is NR2B subunits in NMDA receptors (Rattus norvegicus, UniProt P35439+Q00960). Briefly: PET imaging of brain in rats (baseline, preblock, displacement). As to conditions: for effect of pretreatment on brain radioactivity uptake / displacement of radioligand: radioligand [^11C]NR2B-SMe; for displacement of radioligand: given at 15 min after radioligand, over 90 min; for brain radioactivity uptake / washout of brain radioactivity: rats at baseline; for brain radioactivity uptake: i.v. radioligand, at 5 minutes; for washout of brain radioactivity: over 90 minutes.
NR2B subunits in NMDA receptors (Rattus norvegicus, UniProt P35439+Q00960), sequence (Q00960 27-1482, other chains not shown): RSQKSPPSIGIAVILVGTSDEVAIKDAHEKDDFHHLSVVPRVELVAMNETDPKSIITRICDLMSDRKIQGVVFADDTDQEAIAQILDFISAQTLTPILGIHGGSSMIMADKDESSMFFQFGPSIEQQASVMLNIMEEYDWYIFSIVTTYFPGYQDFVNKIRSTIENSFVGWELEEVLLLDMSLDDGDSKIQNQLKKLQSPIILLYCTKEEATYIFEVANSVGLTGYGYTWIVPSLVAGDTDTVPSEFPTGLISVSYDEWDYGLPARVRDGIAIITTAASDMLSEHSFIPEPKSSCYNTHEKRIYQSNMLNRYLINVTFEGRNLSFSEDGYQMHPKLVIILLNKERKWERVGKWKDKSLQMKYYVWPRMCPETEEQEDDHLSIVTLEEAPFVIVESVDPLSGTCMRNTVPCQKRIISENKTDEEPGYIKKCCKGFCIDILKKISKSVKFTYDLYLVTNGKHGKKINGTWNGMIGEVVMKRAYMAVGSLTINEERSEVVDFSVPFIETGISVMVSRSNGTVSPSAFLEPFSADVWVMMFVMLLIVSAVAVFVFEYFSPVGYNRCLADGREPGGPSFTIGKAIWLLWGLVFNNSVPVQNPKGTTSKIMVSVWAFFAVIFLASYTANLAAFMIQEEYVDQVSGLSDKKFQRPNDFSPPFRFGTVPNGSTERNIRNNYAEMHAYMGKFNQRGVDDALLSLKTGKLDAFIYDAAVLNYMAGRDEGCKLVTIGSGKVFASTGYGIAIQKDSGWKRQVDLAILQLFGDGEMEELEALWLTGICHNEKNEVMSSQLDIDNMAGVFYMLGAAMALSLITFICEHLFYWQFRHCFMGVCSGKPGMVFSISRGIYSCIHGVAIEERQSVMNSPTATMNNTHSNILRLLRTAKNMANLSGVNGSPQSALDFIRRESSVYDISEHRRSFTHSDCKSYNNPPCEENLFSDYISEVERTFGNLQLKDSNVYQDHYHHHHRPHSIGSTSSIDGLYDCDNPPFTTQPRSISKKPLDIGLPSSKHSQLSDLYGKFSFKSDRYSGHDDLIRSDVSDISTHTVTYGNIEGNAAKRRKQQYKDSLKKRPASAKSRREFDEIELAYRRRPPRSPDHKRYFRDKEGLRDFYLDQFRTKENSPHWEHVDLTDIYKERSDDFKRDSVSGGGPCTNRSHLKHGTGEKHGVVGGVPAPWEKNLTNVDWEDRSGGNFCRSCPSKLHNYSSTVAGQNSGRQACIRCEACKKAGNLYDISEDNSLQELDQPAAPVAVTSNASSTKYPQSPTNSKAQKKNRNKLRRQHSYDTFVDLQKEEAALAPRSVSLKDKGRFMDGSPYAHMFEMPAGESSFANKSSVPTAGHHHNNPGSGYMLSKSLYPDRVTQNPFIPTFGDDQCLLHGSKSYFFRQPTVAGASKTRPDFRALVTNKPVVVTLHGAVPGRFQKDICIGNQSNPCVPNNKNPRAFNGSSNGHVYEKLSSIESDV
Method: Displacement studies where NR2B-SMe or eliprodil was given at 15 min after radioligand were also performed.

Series [2] deals with NR2B subunits in NMDA receptors. In words: Brain PET imaging (VT/fP) in monkey (baseline, Co101244 block, self-block). Type of series: in vivo.
For series [3] the test system is unchanged. Described as above. Type of series: in vivo. An excerpt:
Table 2 provides the normalized total volume of distribution (VT/fP) (ml/cm^3) for whole brain and specific regions of the brain at baseline, Co101244 (1-[2-(4-hydroxyphenoxy)ethyl]-4-[(4-methylphenyl)methyl]-4-piperidinol) block and self-block.
This is another data set of the same source.

Setting [4] is: automatic, read-out: Ki (nM), automatic.
Setting [5] is: manual, read-out: Ki (nM), manual.
Setting [6] is: rats, 0.01-3 mg/kg, i.v. at 15 min before radioligand injection.

Where two headings read alike, the source gives them in different places.

NR2B site, sequence (Q13224 27-1484, other chains not shown): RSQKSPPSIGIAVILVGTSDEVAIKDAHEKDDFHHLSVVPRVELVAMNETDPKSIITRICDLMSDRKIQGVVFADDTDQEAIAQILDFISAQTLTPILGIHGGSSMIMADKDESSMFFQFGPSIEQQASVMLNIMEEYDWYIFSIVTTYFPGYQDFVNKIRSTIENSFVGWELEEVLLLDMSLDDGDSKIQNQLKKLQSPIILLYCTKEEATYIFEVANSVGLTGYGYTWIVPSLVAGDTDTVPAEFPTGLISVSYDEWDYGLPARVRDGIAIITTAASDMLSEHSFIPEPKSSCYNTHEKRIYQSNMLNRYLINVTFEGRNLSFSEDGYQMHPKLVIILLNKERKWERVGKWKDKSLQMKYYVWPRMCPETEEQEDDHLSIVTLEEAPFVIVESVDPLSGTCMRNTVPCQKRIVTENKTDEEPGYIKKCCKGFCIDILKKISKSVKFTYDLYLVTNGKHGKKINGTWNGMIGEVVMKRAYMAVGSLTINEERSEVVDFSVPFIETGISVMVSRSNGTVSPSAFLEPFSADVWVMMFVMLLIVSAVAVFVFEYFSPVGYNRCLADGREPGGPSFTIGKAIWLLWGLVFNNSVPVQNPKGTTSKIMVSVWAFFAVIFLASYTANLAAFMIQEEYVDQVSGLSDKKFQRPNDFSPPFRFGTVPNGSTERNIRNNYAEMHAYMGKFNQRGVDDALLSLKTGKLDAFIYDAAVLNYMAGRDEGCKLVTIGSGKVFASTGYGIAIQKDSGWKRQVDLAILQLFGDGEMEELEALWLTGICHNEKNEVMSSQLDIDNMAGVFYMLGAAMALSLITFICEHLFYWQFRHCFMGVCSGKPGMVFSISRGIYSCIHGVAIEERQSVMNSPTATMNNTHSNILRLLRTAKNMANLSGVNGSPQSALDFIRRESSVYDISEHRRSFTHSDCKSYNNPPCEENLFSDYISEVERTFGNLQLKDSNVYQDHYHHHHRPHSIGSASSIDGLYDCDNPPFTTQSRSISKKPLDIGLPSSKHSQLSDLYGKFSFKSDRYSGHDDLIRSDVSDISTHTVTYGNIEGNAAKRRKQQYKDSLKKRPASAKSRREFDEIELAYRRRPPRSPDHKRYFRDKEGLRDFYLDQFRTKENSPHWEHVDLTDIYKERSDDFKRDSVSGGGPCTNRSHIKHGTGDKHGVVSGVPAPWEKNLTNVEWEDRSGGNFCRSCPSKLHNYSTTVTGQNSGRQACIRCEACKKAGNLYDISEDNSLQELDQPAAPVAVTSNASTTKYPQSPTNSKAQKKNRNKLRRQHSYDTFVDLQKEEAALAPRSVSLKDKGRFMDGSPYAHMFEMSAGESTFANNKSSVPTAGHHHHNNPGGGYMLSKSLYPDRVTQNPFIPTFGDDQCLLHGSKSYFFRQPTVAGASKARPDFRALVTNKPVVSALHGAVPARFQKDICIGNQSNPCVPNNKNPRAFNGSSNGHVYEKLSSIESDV
σ2 receptor, sequence (Q5BJF2 whole entry, species assumed): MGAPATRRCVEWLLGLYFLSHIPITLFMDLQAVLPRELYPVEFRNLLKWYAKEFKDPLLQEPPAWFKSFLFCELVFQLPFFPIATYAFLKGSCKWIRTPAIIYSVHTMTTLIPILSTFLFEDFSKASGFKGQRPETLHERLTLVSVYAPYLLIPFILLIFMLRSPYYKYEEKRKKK

In general, Ki refers to a dissociation constant, usually derived from enzyme kinetics or from competition with a known ligand. As a reminder, the inhibition is the relative decrease from the control value, in per cent. For `COc1ccc2c(c1)CCN(CCCCc1ccccc1)CC2O` (stereo not drawn) [Compound 1, 7-methoxy-3-(4-phenylbutyl)-2,3,4,5-tetrahydro-1H-benzo[d]azepin-1-ol, reference compound], the inhibition constant Ki was 43.5 nM at NR2B site (setting [4]) and 9.8 nM at NR2B site (setting [5]). Further, the inhibition at 10 µM is 87.8% at σ2 receptor and 89.1% at σ1 receptor.
Consider `COc1ccc2c(c1)CCN(CCCCc1ccc3ccccc3c1)CC2O` (stereo not drawn) [Compound 2], for which at 10 µM the inhibition on σ1 receptor was 84.4%.
`COc1ccc(CCCCN2CCc3cc(OC)ccc3C(O)C2)cc1` (stereo not drawn) [Compound 3]: 10 µM produced 91.4% inhibition on σ2 receptor.
Consider `COc1ccc2c(c1)CCN(CCCCc1ccc(C)cc1)CC2O` (stereo not drawn) [Compound 4, 7-methoxy-3-(4-(4-methylphenyl)butyl)-2,3,4,5-tetrahydro-1H-benzo[d]azepin-1-ol], for which the values for the Ki on NR2B site (setting [4]) and on NR2B site (setting [5]) were 31.3 nM and 4.9 nM, respectively. Moreover, the “affinity for NR2B” value on NR2B site was “in the nM range”. Besides, the values for the inhibition at 10 µM on σ2 receptor and at σ1 receptor were 90.7% and 89.7%, respectively.
As to `COc1ccc2c(c1)CCN(CCCCc1ccc(Br)cc1)CC2O` (stereo not drawn) [Compound 5], the inhibition at 10 µM at σ2 receptor was 90%; on σ1 receptor, 83.7%.
With `COc1ccc2c(c1)CCN(CCCCc1ccc(F)cc1)CC2O` (stereo not drawn) [Compound 6], the inhibition at 10 µM amounted to 76.9% on σ2 receptor and 57.9% at σ1 receptor.
Consider `COc1ccc2c(c1)CCN(CCC#Cc1ccccn1)CC2O` (stereo not drawn) [Compound 7], for which the inhibition at 10 µM is 74.2% at σ2 receptor and 66.4% at σ1 receptor.
For `COc1ccc2c(c1)CCN(CCC#Cc1cccc(F)n1)CC2O` (stereo not drawn) [Compound 8], the inhibition at 10 µM on σ2 receptor is 56.4%; at σ1 receptor it was 40.8%.
With `COc1ccc2c(c1)CCN(CCCCc1ccc(SC)cc1)CC2O` (stereo not drawn) [Compound 9, 7-methoxy-3-(4-(4-(methylthio)phenyl)butyl)-2,3,4,5-tetrahydro-1H-benzo[d]azepin-1-ol], on NR2B site (setting [4]), the Ki stood at 20 nM. Also, the “affinity for NR2B” value at NR2B site is reported as “in the nM range”. The “effect of pretreatment on brain radioactivity uptake” value (from here on “effect of pretreatment”) in series [1] (setting [6]) is “blocked brain radioactivity uptake in a dose-dependent manner”. In addition, the displacement of radioligand entry in series [1] (rats) was “only slow and low displacement”.
In the case of `OC(CN1CCC(Cc2ccc(F)cc2)CC1)c1ccc(Cl)cc1` (stereo not drawn) [Eliprodil, reference compound], the “effect of pretreatment” value in series [1] (rats, 3 mg/kg i.v) was “blocked brain radioactivity uptake to the similar high extent”. Further, in series [1] (rats), the displacement of radioligand entry is “failed to displace radioligand”.
For the compound `COc1ccc(CCN2CCN(CCCc3ccccc3)CC2)cc1OC` [SA 4503, reference compound], the “effect of pretreatment” value in series [1] (setting [6]) is given as “blocked brain radioactivity uptake in a dose-dependent manner”.
As to `COc1ccc2c(c1)CCN(CCCCc1ccc(C)cc1)CC2O` (stereo not drawn) [[^11C]NR2B-Me, 7-methoxy-3-(4-(4-methylphenyl)butyl)-2,3,4,5-tetrahydro-1H-benzo[d]azepin-1-ol], in series [1], the brain radioactivity uptake worked out at 3.0 SUV and the “washout of brain radioactivity” value is reported as “slow washout”.
For `COc1ccc2c(c1)CCN(CCCCc1ccc(C)cc1)C[C@@H]2O` [[^11C]NR2B-MeI, (R)(−)7-methoxy-3-(4-(4-methylphenyl)butyl)-2,3,4,5-tetrahydro-1H-benzo[d]azepin-1-ol], the “time after radioligand injection from which V showed time stability” value in series [2] was ≥ 80 min. In addition, the “binding potential of whole brain, BPND” value in series [2] (whole brain, self-block) was found to be 4.6; in series [3] (whole brain, Co101244) it was 3.8. For the same compound, the “Normalized Total Volume of Distribution (VT/fp)” value (“Normalized Total Volume” below) in series [3] (Amygdala, Baseline Ave.) came to 3171.1 ml/cm^3; in series [3] (Amygdala, Co101244 block) it was 515.5 ml/cm^3; in series [3] (Amygdala, Self-block) it was 405.4 ml/cm^3; in series [3] (Cerebellum, Baseline Ave.) it was 1465.9 ml/cm^3; in series [3] (Cerebellum, Co101244 block), 426.4 ml/cm^3; in series [3] (Cerebellum, Self-block), 348.6 ml/cm^3. Moreover, the “Normalized Total Volume” value in series [3] (Cingulate Cortex, Baseline Ave.) worked out at 2388.9 ml/cm^3; in series [3] (Cingulate Cortex, Co101244 block), 523.3 ml/cm^3; in series [3] (Cingulate Cortex, Self-block), 400.0 ml/cm^3; in series [3] (Frontal Cortex, Baseline Ave.), 2254.5 ml/cm^3; in series [3] (Frontal Cortex, Co101244 block) it was 562.0 ml/cm^3; in series [3] (Frontal Cortex, Self-block), 451.4 ml/cm^3. The “Normalized Total Volume” value is 2389.6 ml/cm^3 in series [3] (Hippocampus, Baseline Ave.); 465.1 ml/cm^3 in series [3] (Hippocampus, Co101244 block); 370.3 ml/cm^3 in series [3] (Hippocampus, Self-block); 2314.2 ml/cm^3 in series [3] (Insula, Baseline Ave.); 542.6 ml/cm^3 in series [3] (Insula, Co101244 block); 408.1 ml/cm^3 in series [3] (Insula, Self-block). Further, the “Normalized Total Volume” value in series [3] (Occipital Lobe, Baseline Ave.) came to 1676.3 ml/cm^3; in series [3] (Occipital Lobe, Co101244 block) it was 484.5 ml/cm^3; in series [3] (Occipital Lobe, Self-block), 402.7 ml/cm^3; in series [3] (Parietal Lobe, Baseline Ave.), 2001.4 ml/cm^3; in series [3] (Parietal Lobe, Co101244 block), 538.8 ml/cm^3; in series [3] (Parietal Lobe, Self-block), 440.5 ml/cm^3. Besides, the “Normalized Total Volume” value in series [3] (Striatum, Baseline Ave.) stood at 1965.2 ml/cm^3; in series [3] (Striatum, Co101244 block), 573.6 ml/cm^3; in series [3] (Striatum, Self-block), 437.8 ml/cm^3; in series [3] (Temporal Lobe, Baseline Ave.), 1956.8 ml/cm^3; in series [3] (Temporal Lobe, Co101244 block), 476.7 ml/cm^3; in series [3] (Temporal Lobe, Self-block), 373.0 ml/cm^3. The “Normalized Total Volume” value in series [3] (Thalamus, Baseline Ave.) is reported as 2385.1 ml/cm^3; in series [3] (Thalamus, Co101244 block), 596.9 ml/cm^3; in series [3] (Thalamus, Self-block), 445.9 ml/cm^3; in series [3] (Whole Brain, Baseline Ave.), 1959.7 ml/cm^3; in series [3] (Whole Brain, Co101244 block), 511.6 ml/cm^3; in series [3] (whole brain, self-block), 408.1 ml/cm^3. The displacement in series [1] (PET imaging in rats) is 65%. In series [1] (PET imaging in rats), this compound registered a preblocking of 95%. Further, the reversibility of binding entry in series [1] (PET imaging in rats) is “reversible binding”. Moreover, in series [1], the “washout of brain radioactivity” value is reported as “slow washout”. In addition, the “brain radioactivity uptake (in words)” value in series [1] (rats, within 5 minutes) is given as “very high”.
As to `COc1ccc2c(c1)CCN(CCCCc1ccc(SC)cc1)CC2O` (stereo not drawn) [[^11C]NR2B-SMe, [^11C] 7-methoxy-3-(4-(4-(methylthio)phenyl)butyl)-2,3,4,5-tetrahydro-1H-benzo[d]azepin-1-ol], in series [1], the brain radioactivity uptake turned out to be 3.5 SUV and the “washout of brain radioactivity” value was “very low washout”.
Turning to `CC(C(O)c1ccc(O)cc1)N1CCC(Cc2ccccc2)CC1` (stereo not drawn) [ifendopril, reference compound], in series [1] (rats, 3 mg/kg i.v), the “effect of pretreatment” value was “blocked brain radioactivity uptake to the similar high extent”.

The record behind these values is patent US20210094920A1, “NR2B LIGANDS; METHOD OF MAKING; AND USE THEREOF” (THE UNITED STATES OF AMERICA, AS REPRESENTED BY THE …, priority 2018, published 2021).
